The source of these data is patent publication US7479478B2, “Human parathyroid hormone modifications, preparation and use” (The General Hospital Corporation, priority 1998, dated 2009).

pIC50: −log10 of the molar value. No end group written: not given here.

One assay has as its target T1, human PTH-1 receptors (Homo sapiens, UniProt Q03431).
T1 construct: expressed in transfected cells
T1 sequence (Q03431 27-593): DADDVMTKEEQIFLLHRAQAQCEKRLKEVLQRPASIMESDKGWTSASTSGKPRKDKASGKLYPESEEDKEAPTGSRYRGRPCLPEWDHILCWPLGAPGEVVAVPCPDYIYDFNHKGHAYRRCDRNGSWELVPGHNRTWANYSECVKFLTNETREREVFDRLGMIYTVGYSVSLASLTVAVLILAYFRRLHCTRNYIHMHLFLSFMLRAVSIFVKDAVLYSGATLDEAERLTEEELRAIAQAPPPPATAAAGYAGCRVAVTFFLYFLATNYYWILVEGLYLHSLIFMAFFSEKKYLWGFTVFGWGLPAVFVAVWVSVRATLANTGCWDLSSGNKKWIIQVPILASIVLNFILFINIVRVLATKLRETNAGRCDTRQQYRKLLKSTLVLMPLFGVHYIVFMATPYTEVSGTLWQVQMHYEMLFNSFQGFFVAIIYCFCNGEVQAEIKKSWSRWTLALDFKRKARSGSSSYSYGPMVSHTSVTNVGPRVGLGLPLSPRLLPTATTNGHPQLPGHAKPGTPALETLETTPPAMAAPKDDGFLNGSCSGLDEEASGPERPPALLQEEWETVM
The experiment in a line: Radioligand competition binding with 125I-[Nle8,21,Tyr34]rat PTH-(1-34) in HKRK B7 cells. As to conditions: read-out: apparent IC50 for binding. The method, then: HKRK B7 or EW5 cells (32), subclones of LLC-PKI renal epithelial cells that stably express human or rat PTH-1 receptors (950,000 and 320,000 receptors/cell, respectively), were maintained under 5% CO2 in air in Dulbecco's modified essential medium containing 7% fetal bovine serum (FBS) and 1% penicillin/streptomycin (GIBCO-BRL, Grand Island, N.Y.). HEK-293 and COS-7 cells were cultured similarly, except that 10% FBS was used in the medium. Cells were seeded into 24-well plates two days before assay at a density of 2-2.5×10^5 cells/well (HKRK B7 or EW 5 cells) or 6×10^5 cells/well (in 6-well plates) (HEK-293 cells). In experiments involving HEK-293 cells, DNA transfections were performed 24 hr after plating and inositol radiolabel was added 24 hr thereafter (see below). COS-7 cell transfections were performed as previously described (Gardella, T. J., et al., Endocrinology 132(5):2024-2030 (1993)) Radioligand competition binding assays were performed at 2-8° C. for 6 hr using ^125I-[Nle^8,21,[…]]rat PTH-(1-34) (100,000 cpm/well) in the presence or absence of non-radioactive hPTH-(1-34) analogs. Cell layers were washed three times before solubilization for determination of cell-associated radioactivity.
(Displacement assays read how much labelled ligand stays bound in the presence of the test substance.)

In the next assay the target is T2, rat PTH-1 receptors (Rattus norvegicus, UniProt P25961).
T2 construct: expressed in transfected cells
T2 sequence (P25961 27-591): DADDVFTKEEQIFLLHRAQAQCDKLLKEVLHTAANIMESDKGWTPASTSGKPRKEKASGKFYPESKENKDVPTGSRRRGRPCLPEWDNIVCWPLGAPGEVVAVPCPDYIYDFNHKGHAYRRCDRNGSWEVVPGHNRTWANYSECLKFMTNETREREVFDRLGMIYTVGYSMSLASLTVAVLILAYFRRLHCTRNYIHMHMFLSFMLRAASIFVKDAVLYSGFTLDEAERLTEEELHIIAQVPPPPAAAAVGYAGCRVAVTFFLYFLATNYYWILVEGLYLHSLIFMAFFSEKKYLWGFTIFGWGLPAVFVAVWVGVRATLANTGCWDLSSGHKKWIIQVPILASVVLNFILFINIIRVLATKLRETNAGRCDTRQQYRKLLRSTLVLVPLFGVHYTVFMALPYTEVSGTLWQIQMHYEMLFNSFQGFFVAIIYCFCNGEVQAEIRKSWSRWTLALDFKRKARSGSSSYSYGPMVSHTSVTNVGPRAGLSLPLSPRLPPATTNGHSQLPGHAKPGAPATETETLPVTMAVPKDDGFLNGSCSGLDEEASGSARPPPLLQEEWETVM
The experiment in a line: Radioligand binding in EW5 cells. As to conditions: compared with human PTH-1 receptor. The method, then: HKRK B7 or EW5 cells (32), subclones of LLC-PKI renal epithelial cells that stably express human or rat PTH-1 receptors (950,000 and 320,000 receptors/cell, respectively), were maintained under 5% CO2 in air in Dulbecco's modified essential medium containing 7% fetal bovine serum (FBS) and 1% penicillin/streptomycin (GIBCO-BRL, Grand Island, N.Y.). HEK-293 and COS-7 cells were cultured similarly, except that 10% FBS was used in the medium. Cells were seeded into 24-well plates two days before assay at a density of 2-2.5×10^5 cells/well (HKRK B7 or EW 5 cells) or 6×10^5 cells/well (in 6-well plates) (HEK-293 cells). In experiments involving HEK-293 cells, DNA transfections were performed 24 hr after plating and inositol radiolabel was added 24 hr thereafter (see below). COS-7 cell transfections were performed as previously described (Gardella, T. J., et al., Endocrinology 132(5):2024-2030 (1993))
Radioligand competition binding assays were performed at 2-8° C. for 6 hr using ^125I-[Nle^8,21, Tyr^34]rat PTH-(1-34) (100,000 cpm/well) in the presence or absence of non-radioactive hPTH-(1-34) analogs. Cell layers were washed three times before solubilization for determination of cell-associated radioactivity. […]

A word on the pIC50: it is −log10 of the IC50, conventionally taken in molar units. Consider “SVSEIQLMHNLGKHLNSMERVEWLRKKL-NH2 [hPTH-(1-28)]”, for which, at human PTH-1 receptors, the negative logarithm of the IC50 (pIC50) was 6.00. In addition, the “binding affinity for rat PTH-1 receptor, result in words” value at rat PTH-1 receptors is “comparable”.
